Test results from article PMC10644342, “Improved Antibacterial Activity of 1,3,4-Oxadiazole-Based Compounds That Restrict Staphylococcus aureus Growth Independent of LtaS Function” (ACS Infectious Diseases, 2023).
≈ marks a conversion by molar mass, not a printed value. Where two headings read alike, the source gives them in different places.

Columns and labels:
S. aureus [1] = assay: MIC, broth microdilution (CLSI); assay type: cell-based, Staphylococcus aureus; conditions: for MIC: read-out: minimum inhibitory concentration; for MIC50: used for selectivity index; for MIC range against S. aureus strains: collection of S. aureus strains incl. multidrug-resistant MRSA and VRSA
Procedure: (§1) S. aureus, S. epidermidis, E. faecalis, and E. faecium strains were routinely cultivated on tryptic soy agar (TSA) and grown for 18 h at 37 °C. S. aureus single colonies were subsequently transferred into 2 mL of tryptic soy broth (TSB) and grown for a further 18 h at 37 °C while being shaken at 180 rpm. S. pyogenes, S. agalactiae, and S. dysgalactiae strains were routinely cultured on TSA supplemented with 5% sheep blood and grown for 18 h at 37 °C with 5% CO2. E. coli was grown in LB broth at 37 °C. For LtaS-deficient strains, TSB was supplemented with 0.5 M NaCl to provide an osmotically balanced environment and instead grown at 30 °C. For strains harboring the pRMC2 tetracycline inducible vector,[61] the growth medium was supplemented with 10 μg/mL chloramphenicol and […] anhydrotetracycline hydrochloride (Sigma). Phenylalanine-arginine β-naphthylamide (PAβN) (Sigma) was dissolved in sterile water.
(§2) B. subtilis, staphylococcal, and enterococcal strains were grown in Mueller Hinton broth (MHB), while streptococcal strains were grown in MHB supplemented with 5% laked horse blood. All strains were grown for 18 h at 37 °C. The overnight cultures were subsequently subcultured 1:200 and grown to the exponential phase (OD600nm = 0.5–0.6) in fresh broth. 1771 and its derivatives 9–14 were reconstituted in DMSO and further diluted by performing a 1:2 serial dilution ranging between 256 and 0.125 μg/mL in a 96-well microtiter plate. One hundred microliters of 0.5 McFarland standardized inoculum (approximately equal to 5 × 10^5 cfu) were then dispensed into each well in the 96-well microtiter plate. The plate was incubated for 18 h at 37 °C.

S. epidermidis = assay: MIC, broth microdilution (CLSI); assay type: cell-based, Staphylococcus epidermidis; conditions: for MIC: read-out: minimum inhibitory concentration
Procedure: as §1, §2

S. aureus [2] = assay: Checkerboard MIC analysis with antistaphylococcal antibiotics (FIC index); assay type: cell-based; conditions: lowest possible value
Procedure: Antibiotic combination 1771 Compound 13
Figure S1. Checkerboard analysis of 1771 and compound 13 in combination with clinically relevant antibiotics. Checkerboard analysis was repeated twice for each antibiotic combination, and the mean bacterial growth (OD 600nm) plotted as a heat map with 1771/compound 13 concentration of the y-axis and test antibiotic concentration on the x axis.
FIC indexes were calculated for each combination and the lowest possible value presented. […]
Supplementary Materials and Methods
Synergistic activity with clinically relevant antibiotics
The synergistic ability of 1771 and 13 was achieved using the chequerboard micro-broth dilution method. Antibiotic partners tested included: oxacillin, daptomycin, vancomycin, gentamicin, and linezolid with starting concentrations of 256 µg/ml, 8 µg/ml, 8 µg/ml, 4 µg/ml, and 8 µg/ml respectively. Overnight cultures were sub-cultured 1:200 in fresh MHB and grown to optical density of OD600nm of 0.5-0.6 and prepared according to the MIC analysis. Following an 18 h incubation at 37 °C the sum of the fractional inhibitory […]
using the equation ΣFIC = FICA +FICB = (MICA in combination with B/MICA) + (MICB in combination with A/MICB). The resulting value was interpreted according to the following rules: synergistic (FIC ≤ 0.5), additive (FIC >0.5, <1) or indifferent (FIC ≥ 1 <4). […]

S. aureus strain SH1000 = assay: Biofilm prevention, crystal violet assay; assay type: cell-based, Staphylococcus aureus; conditions: for concentration causing a 50% reduction in biofilm formation: SH1000, 24 h
Procedure: (§3) An indication of the biofilm prevention capabilities of 1771 and its derivatives 9–14 was achieved through the application of the crystal violet assay. S. aureus strain SH1000 and S. epidermidis strain RP62A were used, as they are strong biofilm formers. Overnight cultures were diluted 1:200 in fresh TSB containing 0.5% glucose (TSB-G), and 100 μL was added to individual wells in a 96-well microtiter plate. One hundred microliters of 1771 and 9–14 were diluted in TSB-G and added to bacteria at a final concentration ranging from 256 to 0.25 μg/mL with subsequent incubation for 24 h at 37 °C in a static incubator. Following incubation, biofilms were washed four times with ddH2O before being stained with 150 μL of 0.1% crystal violet for 30 min at room temperature. Following a further four washes in ddH2O, wells were resuspended in 200 μL of 7% acetic acid. The absorbance intensity of the crystal violet was measured at abs595nm in a Sunrise plate reader. Biomass formed was measured as a percentage of the no-compound control.

[3] = test system: S. epidermidis strain RP62A; assay: Biofilm prevention, crystal violet assay; assay type: cell-based, Staphylococcus epidermidis; conditions: for concentration causing a 50% reduction in biofilm formation: 24 h
Procedure: as §3

MRSA strain LAC [4] = assay: Time-kill kinetic analysis; assay type: cell-based, Staphylococcus aureus; conditions: for effect on growth of LAC: 1× MIC, 24 h, inoculum 5 × 10^5 cfu
Procedure: Overnight cultures of MRSA strain LAC were subcultured 1:200 and grown to the exponential phase in fresh MHB. These cultures were subsequently diluted to give 500 μL of MHB containing 5 × 10^5 cfu. […] These suspensions were incubated for 24 h at 37 °C, with 50 μL of the suspension serially diluted 1:10 in 450 μL of phosphate buffered saline (PBS) and plated out on TSA at times 0, 1, 2, 4, 6, and 24 h for enumeration.

MRSA strain LAC [5] = assay: Minimum bactericidal concentration; assay type: cell-based, Staphylococcus aureus; conditions: for classification bactericidal/bacteriostatic: time kill and MBC
Procedure: For an antibiotic with an MBC ≤ 4×, the MIC was considered to be bactericidal, whereas with an MBC > 4×, the MIC was considered to be bacteriostatic.[24] […] Percentage survival was calculated according to the starting inoculum of 5 × 10^5 cfu at time 0 h.

[6] = Staphylococcus aureus, NEWMAN, strain Newman
[7] = Staphylococcus aureus, strain EMRSA-15
[8] = Staphylococcus aureus, strain LAC
[9] = Staphylococcus aureus, strain MRSA252
[10] = Staphylococcus aureus, strain MW2
[11] = Staphylococcus aureus, strain Mu3
[12] = Staphylococcus aureus, strain Mu50
[13] = Staphylococcus aureus, strain SH1000
[14] = Staphylococcus aureus, strain TW20
[15] = Staphylococcus epidermidis, strain 305
[16] = Staphylococcus epidermidis, strain 311
[17] = Staphylococcus epidermidis, strain 319
[18] = Staphylococcus epidermidis, strain 322
[19] = Staphylococcus epidermidis, strain 771
[20] = Staphylococcus epidermidis, strain 780
[21] = Staphylococcus epidermidis, strain RP62A

Compound	MIC (S. aureus [1]; [6]) [µg/mL]	MIC (S. aureus [1]; [7]) [µg/mL]	MIC (S. aureus [1]; [8]) [µg/mL]	MIC (S. aureus [1]; [9]) [µg/mL]	MIC (S. aureus [1]; [10]) [µg/mL]	MIC (S. aureus [1]; [11]) [µg/mL]	MIC (S. aureus [1]; [12]) [µg/mL]	MIC (S. aureus [1]; [13]) [µg/mL]	MIC (S. aureus [1]; [14]) [µg/mL]	MIC50 (S. aureus [1]; Staphylococcus aureus) [µg/mL]	MIC range against S. aureus strains (S. aureus [1]) [µg/mL]	MIC (S. epidermidis; [15]) [µg/mL]	MIC (S. epidermidis; [16]) [µg/mL]	MIC (S. epidermidis; [17]) [µg/mL]	MIC (S. epidermidis; [18]) [µg/mL]	MIC (S. epidermidis; [19]) [µg/mL]	MIC (S. epidermidis; [20]) [µg/mL]	MIC (S. epidermidis; [21]) [µg/mL]	FIC index (S. aureus [2]; combination with daptomycin)	FIC index (S. aureus [2]; combination with gentamicin)	other results
O=C(COC(=O)Cc1coc2ccc3ccccc3c12)Nc1nnc(-c2ccc(S(F)(F)(F)(F)F)cc2)o1 [Compound 13, 2-Oxo-2-((5-(4-(pentafluoro-l6-sulfaneyl)phenyl)-1,3,4-oxadiazol-2-yl)amino)ethyl 2-(Naphtho[2,1-b]furan-1-yl)acetate]	0.5 (≈ 0.903 µM)	0.5 (≈ 0.903 µM)	0.5 (≈ 0.903 µM)	1 (≈ 1.81 µM)	0.5 (≈ 0.903 µM)	0.5 (≈ 0.903 µM)	0.5 (≈ 0.903 µM)	0.5 (≈ 0.903 µM)	0.5 (≈ 0.903 µM)	0.5 (≈ 0.903 µM)	0.5 to 1	0.5 to 1 (≈ 0.903 to 1.81 µM)	0.5 (≈ 0.903 µM)	1 (≈ 1.81 µM)	0.5 (≈ 0.903 µM)	0.5 (≈ 0.903 µM)	0.5 to 1 (≈ 0.903 to 1.81 µM)	0.5 (≈ 0.903 µM)	0.75	0.75	MIC90 (S. aureus [1]; Staphylococcus aureus, against S. aureus): 0.5 µg/mL (≈ 0.903 µM); fold increase in activity compared to 1771 (S. aureus [1]; multidrug-resistant S. aureus strains): 16- to 32 fold; MIC90 (S. epidermidis; Staphylococcus epidermidis): 1 µg/mL (≈ 1.81 µM); FIC index (S. aureus [2]; combination with linezolid): 0.515; FIC index (S. aureus [2]; combination with oxacillin): 0.75; FIC index (S. aureus [2]; combination with vancomycin): 1; biofilm prevention compared with 1771 (S. aureus strain SH1000; SH1000): better than 1771; concentration causing a 50% reduction in biofilm formation (S. aureus strain SH1000): 0.25 µg/mL; biofilm prevention compared with 1771 [3]: better than 1771; concentration causing a 50% reduction in biofilm formation [3]: 0.25 µg/mL; effect on growth of LAC (MRSA strain LAC [4]): completely inhibited the growth; starting inoculum surviving the exposure (MRSA strain LAC [4]; 4× MIC, LAC): 1%; minimal bactericidal concentration (MBC) (MRSA strain LAC [5]; 8 to 128 μg/mL (up to 256× MIC)): could not be elucidated; classification bactericidal/bacteriostatic (MRSA strain LAC [5]): bacteriostatic
O=C(COC(=O)Cc1coc2ccc3ccccc3c12)Nc1nnc(-c2ccccc2)o1 [Compound 1771, 2-Oxo-2-((5-phenyl-1,3,4-oxadiazol-2-yl)amino)ethyl 2-(Naphtho[2,1-b]furan-1-yl)acetate, reference compound]	4 to 8 (≈ 9.36 to 18.7 µM)	8 to 16 (≈ 18.7 to 37.4 µM)	8 (≈ 18.7 µM)	8 (≈ 18.7 µM)	8 (≈ 18.7 µM)	8 to 16 (≈ 18.7 to 37.4 µM)	4 to 8 (≈ 9.36 to 18.7 µM)	4 to 8 (≈ 9.36 to 18.7 µM)	8 (≈ 18.7 µM)	8 (≈ 18.7 µM)	4 to 16	8 to 16 (≈ 18.7 to 37.4 µM)	8 to 16 (≈ 18.7 to 37.4 µM)	8 to 16 (≈ 18.7 to 37.4 µM)	16 (≈ 37.4 µM)	8 to 16 (≈ 18.7 to 37.4 µM)	8 to 16 (≈ 18.7 to 37.4 µM)	8 to 16 (≈ 18.7 to 37.4 µM)	0.625	0.375	MIC range against S. epidermidis strains (S. epidermidis; collection of S. epidermidis strains): 8 to 16 µg/mL; FIC index (S. aureus [2]; combination with linezolid): 1; FIC index (S. aureus [2]; combination with oxacillin): 0.75; FIC index (S. aureus [2]; combination with vancomycin): 1; concentration causing a 50% reduction in biofilm formation (S. aureus strain SH1000): 4 µg/mL; concentration causing a 50% reduction in biofilm formation [3]: 8 µg/mL; effect on growth of LAC (MRSA strain LAC [4]): completely inhibited the growth; killing effect (MRSA strain LAC [4]; 4× MIC, LAC): roughly 65%; classification bactericidal/bacteriostatic (MRSA strain LAC [5]): bacteriostatic
